Laboratory results reported in US8097628B2, “Compounds” (Glaxo Group Limited, priority 2008, dated 2012).
In brackets after ≈: the same amount, converted by molar mass.

Each compound was assayed on E. coli 120 AcrAB- (assay: Antimicrobial Activity Assay, whole-cell broth microdilution (CLSI M7-A7)). Details: Escherichia coli, read-out: lowest MIC.
Type: cell-based
Protocol: Whole-cell antimicrobial activity was determined by broth microdilution using the Clinical Laboratory Standards Institute (CLSI) recommended procedure, Document M7-A7, “Methods for Dilution Susceptibility Tests for Bacteria that Grow Aerobically”.
In addition, compounds were evaluated against a panel of Gram-negative organisms including Haemophilus influenzae, Moraxella catarrhalis, Escherichia coli,
The minimum inhibitory concentration (MIC) was determined as the lowest concentration of compound that inhibited visible growth. A mirror reader was used to assist in determining the MIC endpoint.

Compound | MIC
Cc1cc(CNC2CCN(C[C@@H]3Cn4c(=O)ccc5ccc(=O)n3c54)CC2)cnc1C#N [Example 32, 5-{[(1-{[(1R)-4,9-dioxo-1,2-dihydro-4H,9H-imidazo[1,2,3-ij]-1,8-naphthyridin-1-yl]methyl}-4-piperidinyl)amino]methyl}-3-methyl-2-pyridinecarbonitrile] | 4 µg/mL (≈ 9.29 µM)

What follows are compounds tested on Mycobacterium tuberculosis H37Rv (assay: Mycobacterium tuberculosis H37Rv Inhibition Assay). Details: ATCC 25618 / H37Rv, H37Rv strain (ATCC25618), Middlebrook 7H9, resazurin fluorescence, read-out: MtB MIC.
Type: cell-based

Compound | MIC
Cc1cc(CNC2CCN(C[C@@H]3Cn4c(=O)ccc5ccc(=O)n3c54)CC2)cnc1C#N [Example 32, 5-{[(1-{[(1R)-4,9-dioxo-1,2-dihydro-4H,9H-imidazo[1,2,3-ij]-1,8-naphthyridin-1-yl]methyl}-4-piperidinyl)amino]methyl}-3-methyl-2-pyridinecarbonitrile] | 0.538 µg/mL (≈ 1.25 µM)
O=c1ccc2ccc(=O)n3c2n1C[C@H]3CN1CCC(NCc2cnc(CO)c(Cl)c2)CC1 [Example 56, (1R)-1-{[4-({[5-chloro-6-(hydroxymethyl)-3-pyridinyl]methyl}amino)-1-piperidinyl]methyl}-1,2-dihydro-4H,9H-imidazo[1,2,3-ij]-1,8-naphthyridine-4,9-dione] | 0.3 µg/mL (≈ 0.658 µM)
COc1cc(CNC2CCN(CC3Cn4c(=O)ccc5ncc(=O)n3c54)CC2)ccc1C (stereo not drawn) [Example 57, 2-{[4-({[4-methyl-3-(methyloxy)phenyl]methyl}amino)-1-piperidinyl]methyl}-1,2-dihydro-3H,8H-2a,5,8a-triazaacenaphthylene-3,8-dione] | 1.09 µg/mL (≈ 2.5 µM)
Cl.O=c1ccc2ccc(=O)n3c2n1C[C@H]3CN1CCC(NCc2ccc(C(F)(F)F)nc2)CC1 [Example 59, (1R)-1-{[4-({[6-(trifluoromethyl)-3-pyridinyl]methyl}amino)-1-piperidinyl]methyl}-1,2-dihydro-4H,9H-imidazo[1,2,3-ij]-1,8-naphthyridine-4,9-dione hydrochloride] | 0.154 µg/mL

Same assay, conditions: H37Rv inhibition assay, read-out: MIC value

Compound | MIC
Cc1ncc(CNC2CCN(C[C@@H]3Cn4c(=O)ccc5ccc(=O)n3c54)CC2)cc1F [Example 63, (1R)-1-[(4-{[(5-fluoro-6-methyl-3-pyridinyl)methyl]amino}-1-piperidinyl)methyl]-1,2-dihydro-4H,9H-imidazo[1,2,3-ij]-1,8-naphthyridine-4,9-dione] | > 1 µg/mL
O=c1ccc2ccc(=O)n3c2n1C[C@H]3CN1CCC(NCc2ccc(CO)c(Cl)c2)CC1 [Example 64, (1R)-1-{[4-({[3-chloro-4-(hydroxymethyl)phenyl]methyl}amino)-1-piperidinyl]methyl}-1,2-dihydro-4H,9H-imidazo[1,2,3-ij]-1,8-naphthyridine-4,9-dione] | > 1 µg/mL
COCCc1ncc(CNC2CCN(C[C@@H]3Cn4c(=O)ccc5ncc(=O)n3c54)CC2)cc1Cl [Example 65, (2R)-2-({4-[({5-chloro-6-[2-(methyloxy)ethyl]-3-pyridinyl}methyl)amino]-1-piperidinyl}methyl)-1,2-dihydro-3H,8H-2a,5,8a-triazaacenaphthylene-3,8-dione] | > 1 µg/mL
CC(=O)OCc1ccc(CNC2CCN(C[C@@H]3Cn4c(=O)ccc5ccc(=O)n3c54)CC2)cc1Cl [Example 71, (2-chloro-4-{[(1-{[(1R)-4,9-dioxo-1,2-dihydro-4H,9H-imidazo[1,2,3-ij]-1,8-naphthyridin-1-yl]methyl}-4-piperidinyl)amino]methyl}phenyl)methyl acetate] | > 1 µg/mL
